Reference: ChEMBL document CHEMBL1201862, “PubChem BioAssay data set” (2004)
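Step 1: Grow cells in 96-well plates. Step 2: Expose to compound for 48 hours at 5 concentrations. Step 3: Interpolate endpoints linearly; if unreached, use highest concentration. At the GI50, growth is halved.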 Calls of active or inactive are those of the source. Cut-off read from the data, not from the text of the source: active = GI50 up to about 1.1 µM and inactive = higher.

Tests used:
Test in all cases: DTP human tumour cell line panel, 48 h
[1] = tested on: DU-145
[2] = tested on: IGROV-1
[3] = tested on: UACC-257
[4] = tested on: OVCAR-5
[5] = tested on: HCC 2998
[6] = tested on: KM12
[7] = tested on: A549
[8] = tested on: HT-29
[9] = tested on: MCF7
[10] = tested on: ACHN
[11] = tested on: NCI-H522
[12] = tested on: HCT-116
[13] = tested on: SK-MEL-5
[14] = tested on: SNB-75
[15] = tested on: COLO 205
[16] = tested on: UACC-62
[17] = tested on: M14
[18] = tested on: SR
[19] = tested on: SNB-19
[20] = tested on: MDA-N

Measured: GI50

c1ccc(C2=Nn3c(CCCCCCCCc4nnc5n4N=C(c4ccccc4)CS5)nnc3SC2)cc1
inactive: [1] > 100 µM | [2] > 100 µM | [3] > 100 µM | [4] > 75.9 µM | [5] > 100 µM | [6] > 100 µM | [7] > 100 µM | [8] 19.6 µM | [9] > 100 µM | [10] 40.6 µM | [11] 40.2 µM | [12] > 66.1 µM | [13] > 100 µM | [14] 14.5 µM | [15] > 100 µM | [16] 46.8 µM | [17] 37.6 µM | [18] > 68.5 µM | [19] 18.4 µM | [20] > 100 µM

COC(=O)c1ccccc1CC1Cc2cc3c(cc2C1=O)CCC3 (stereo not given)
inactive: [1] 27.7 µM | [2] 16 µM | [3] 19.3 µM | [4] 26.5 µM | [5] > 41.1 µM | [6] 8.67 µM | [7] 20.3 µM | [8] 8.71 µM | [9] 14.6 µM | [10] 27.7 µM | [11] 5.28 µM | [12] 5.32 µM | [13] 7.83 µM | [14] 11.4 µM | [15] 8.59 µM | [16] 9.77 µM | [17] 10.4 µM | [18] 4.06 µM | [19] 21.4 µM | [20] 1.93 µM

CCCCCC(=O)OC[n+]1ccc2c(C)c3[nH]c4ccc(OC)cc4c3c(C)c2c1
inactive: [3] 1.28 µM | [13] 1.57 µM
active: [1] 0.505 µM | [2] 0.234 µM | [4] 0.556 µM | [5] 0.543 µM | [6] 0.225 µM | [7] 0.284 µM | [8] 0.0897 µM | [9] 0.225 µM | [10] 0.106 µM | [11] 0.566 µM | [12] 0.0482 µM | [14] 1.11 µM | [15] 0.251 µM | [16] 0.966 µM | [17] 0.622 µM | [18] 0.0498 µM | [19] 0.189 µM | [20] 0.332 µM

c1ccc(C2C3=C(CCCC3)Nc3nc4cc5ccccc5cc4n32)cc1 (stereo not given)
inactive: [1] > 100 µM | [2] > 100 µM | [3] > 100 µM | [4] > 100 µM | [5] > 100 µM | [6] > 100 µM | [7] > 100 µM | [8] > 100 µM | [9] > 100 µM | [10] > 100 µM | [11] > 100 µM | [12] > 100 µM | [13] > 100 µM | [14] > 100 µM | [15] > 100 µM | [16] > 100 µM | [17] > 100 µM | [18] > 100 µM | [19] > 100 µM | [20] > 100 µM

CCCCCCCCCCCCCCCC[N+](C)(C)Cc1ccc(F)cc1
active: [2] 0.383 µM | [11] 0.724 µM
inactive: [1] 3.68 µM | [3] 1.79 µM | [4] 1.83 µM | [5] 1.47 µM | [6] 1.26 µM | [7] 2.67 µM | [8] 1.26 µM | [9] 1.61 µM | [10] 3.07 µM | [12] 1.48 µM | [13] 1.75 µM | [14] 1.39 µM | [15] 1.61 µM | [16] 1.67 µM | [17] 1.6 µM | [18] 1.54 µM | [19] 1.66 µM | [20] 1.96 µM

C=CCCC(=O)CC(O)(C(F)(F)F)C(F)(F)F
inactive: [1] > 100 µM | [2] > 100 µM | [3] > 100 µM | [4] > 100 µM | [5] > 100 µM | [6] > 100 µM | [7] > 100 µM | [8] > 100 µM | [9] > 100 µM | [10] > 100 µM | [11] > 100 µM | [12] > 100 µM | [13] > 100 µM | [14] > 100 µM | [15] > 100 µM | [16] > 100 µM | [17] > 100 µM | [18] > 100 µM | [19] > 100 µM | [20] > 100 µM

Cc1ccc(C(=O)c2[nH]c(Nc3cc(C)ccn3)c(C(=S)Nc3ccccc3)c2N)cc1
inactive: [1] > 100 µM | [2] > 100 µM | [3] > 100 µM | [4] > 100 µM | [5] > 100 µM | [6] > 100 µM | [7] > 100 µM | [8] > 100 µM | [9] 87.5 µM | [10] > 100 µM | [11] > 100 µM | [12] > 100 µM | [13] > 100 µM | [14] > 100 µM | [15] > 100 µM | [16] > 100 µM | [17] > 100 µM | [18] > 100 µM | [19] > 100 µM | [20] > 100 µM
